From patent publication US7230013B2, “C10 carbamoyloxy substituted taxane compositions” (Florida State University Research Foundation, Inc., priority 2000, dated 2007) come the findings set out here.

SMILES strings stand for the structures.

The test system of one data set is HCT116 cells. The data set can be described thus: In vitro cytotoxicity measured by the cell colony formation assay. Type of data set: cell-based. Conditions: Homo sapiens, HCT-116; read-out: IN VITRO ID 50 (nm) HCT116. As to the method:
In Vitro Cytotoxicity Measured by the Cell Colony Formation Assay
Four hundred cells (HCT116) were plated in 60 mm Petri dishes containing 2.7 mL of medium (modified McCoy's 5a medium containing 10% fetal bovine serum and 100 units/mL penicillin and 100 µg/mL streptomycin). The cells were incubated in a CO2 incubator at 37° C. for 5 h for attachment to the bottom of Petri dishes. The compounds identified in Example 2 were made up fresh in medium at ten times the final concentration, and then 0.3 mL of this stock solution was added to the 2.7 mL of medium in the dish. The cells were then incubated with drugs for 72 h at 37° C. At the end of incubation the drug-containing media were decanted, the dishes were rinsed with 4 mL of Hank's Balance Salt Solution (HBSS), 5 mL of fresh medium was added, and the dishes were returned to the incubator for colony formation. The cell colonies were counted using a colony counter after incubation for 7 days.

As a reminder, the melting point is the temperature, or range, at which the solid turns liquid. For the compound `CCNC(=O)O[C@H]1C(=O)[C@@]2(C)C([C@H](OC(=O)c3ccccc3)[C@]3(O)C[C@H](OC(=O)[C@H](O)[C@@H](NC(=O)OC(C)(C)C)c4cccs4)C(C)=C1C3(C)C)[C@]1(OC(C)=O)CO[C@@H]1C[C@@H]2O` (some centres unmarked) (hydrate or solvate) [Compound 2722, 3′-Desphenyl-3′-(2-thienyl)-10-N-ethylcarbamoyl docetaxel], the melting point lay within 166 to 168 °C.

With `CCNC(=O)O[C@H]1C(=O)[C@@]2(C)C([C@H](OC(=O)c3ccccc3)[C@]3(O)C[C@H](OC(=O)[C@H](O)[C@@H](NC(=O)OC(C)(C)C)c4cccs4)C(C)=C1C3(C)C)[C@]1(OC(C)=O)CO[C@@H]1C[C@@H]2O` (some centres unmarked) [Compound 2722, 3′-Desphenyl-3′-(2-thienyl)-10-N-ethylcarbamoyl docetaxel], the IC50 in the data set with HCT116 cells is under 1 nM.
